According to a melting point compilation (Tetko et al.; mined from patent text by program, amines drawn as free bases though some values may be those of a salt):

Compound | melting point
Cc1ccc(Sc2nc(Cl)cc(OCCOc3ccccc3)n2)cc1 | 128 to 132 °C
O=C(Nc1ccc(Cl)cc1)c1ccccc1F | 94.5 to 96.2 °C
CC[C@@H](c1ccccc1)N(Cc1ccc(C(=O)O)cc1OC)S(=O)(=O)c1ccc(Cl)cc1 | 176 to 178 °C
C=C(c1ccc(OC)cc1)c1ccc(N2CCCC2)cc1 | 159 to 162 °C
CC1(C)NC(=O)N(c2ccc(C#N)c(C(F)(F)F)c2)C1=O | 210 °C
CCNC(=O)NCCC1CCc2ccc3nc(C)oc3c21 (centres undefined) | 136 to 138 °C
CC(C)(C)OC(=O)n1[nH]c(=O)c2ccccc21 | 145 °C
CC(=O)NC[C@H]1CN(c2ccc(-n3cc(-c4ccc(C)cc4)cn3)c(F)c2)C(=O)O1 | 222 to 223 °C
COC(=O)c1ccc(OCCc2c[nH]cn2)cc1 | 116 to 118 °C
CCC=CCC=CCC=CCCCCCCCC(=O)OCC(COC(=O)CCCCCCCC=CCC=CCC=CCC)OCn1cnc2c(=O)[nH]c(N)nc21 (centres undefined) | 242 to 243 °C
COc1ccc(CC(=O)NO[C@@H](C)c2ccccc2)cc1 | 60 to 61 °C
CSc1ccc(-c2n[nH]c(=O)cc2-c2ccc(Cl)cc2)cc1 | 202 to 204 °C
CC1(CNc2ccccc2)SC2C(NC(=O)Cc3ccccc3)C(=O)N2C1C(=O)OCC(Cl)(Cl)Cl (centres undefined) | 148 to 149 °C
O=C(O)Cc1cn(C(=O)c2cccc(C(F)(F)F)c2)c2cc(Cl)ccc12 | 194 to 196 °C
CC1(C)C(=O)Nc2cc([N+](=O)[O-])c(NC(=O)c3ccncc3)cc21 | 310 to 318 °C
CC(C)(C)OC(=O)Nc1ccc(C(=O)O)c2ccccc12 | 194 to 195 °C
CCOC(=O)C1Cc2cc(-c3ccc(NC(C)=O)cc3)ccc2O1 (centres undefined) | 164 to 166 °C
NC(=O)c1cc2cc(OCC(O)CCl)ccc2o1 (centres undefined) | 136 to 138 °C
Cc1cccc(-c2n[nH]cc2Cl)c1 | 109 °C
COC(=O)CCC(C)C1CCC2C3CC=C4C(C)(C)C(O)CCC4(C)C3CCC12C (centres undefined) | 136 to 138 °C
CCOC(=O)C1CCn2c(cc3ccccc32)C1OC(C)=O (centres undefined) | 98 to 100 °C
CSc1ccc(-c2c(C(F)(F)F)n(C)[nH]c2=O)cc1 | 142 to 146 °C
O=C(Nc1cccc(S(=O)(=O)NCCc2ccncc2)c1)c1cnn2c(C(F)(F)F)cc(-c3ccc(C(F)(F)F)cc3)nc12 | 236 °C
CC(C)(CNC=O)c1ccc2nc(C3CCNCC3)[nH]c2c1 | 234 to 237 °C
COc1ccc(C(=Cn2cc[nH]c2=O)CC(=O)O)cc1OC1CCCC1 | 194 °C

Compound | melting point
CC(=O)Nc1ccc(S(=O)(=O)NCC(O)(Cn2cncn2)c2ccc(Cl)cc2Cl)cc1 (centres undefined) | 232 to 233 °C
CC(C)(C)c1cccc(S(=O)(=O)n2c(C(F)c3ccc(C(=O)O)cc3)cc3cc(C(F)(F)F)ccc32)c1 (centres undefined) | 170 °C
CS(=O)(=O)c1ccc(C(=O)O)c(C(F)(F)F)c1F | 250 to 252 °C
CCCCCCCCCCCCC(OC(C)=O)C1=CC(=O)OC1O (centres undefined) | 67 to 68 °C
C[C@H](NC(=O)CCn1cc(C2=C(c3cn(C)c4ccccc34)C(=O)NC2=O)c2ccccc21)C(=O)NCC(=O)N[C@@H](CCCCN)C(N)=O | 158 to 160 °C
O=Cc1cc2ccccc2n1-c1cccnc1 | 101 to 103 °C
CC12CCCc3cc(N(CC4CC4)c4ccc(C(=O)O)cc4)cc(c31)CCC2 | 234 to 235 °C
CCOC(=O)C1=C(COCCNc2noc(N)n2)NC(C)=C(C(=O)OC)C1c1ccccc1Cl (centres undefined) | 135 °C
CN(C)Cc1nc(C(N)=O)nn1-c1ccc(Cl)cc1C(=O)c1ccccc1Cl | 177 to 180 °C
COc1cccc(OC)c1CN1CCC(=O)C(C(c2ccc(F)cc2)c2ccc(F)cc2)C1 (centres undefined) | 125 to 126 °C
CC(C)(C)OC(=O)NC(Cc1ccccc1)C(=O)Nc1nc(CC(=O)O)cs1 (centres undefined) | 189 to 190 °C
CS(=O)(=O)c1ccc(-c2cnn(CC(F)(F)F)c(=O)c2Nc2ccc(F)cc2)cc1 | 158 to 160 °C
O=C(O)c1cn(C2CSC2)c2cc(F)c(F)cc2c1=O | 251 to 256 °C
CCC(=O)c1ccc(OCCCCCCCc2cc(C)no2)cc1 | 61 °C
CC(=O)OCC1OC(n2cc(C(Cl)=CI)c(=O)[nH]c2=O)CC1OC(C)=O (centres undefined) | 81 to 83 °C
CCOCc1nc2c(N)nc(C)c(C)c2n1CCOCc1ccncc1 | 143 to 145 °C
CCn1c(C2CCCO2)nc2c(N)nc(OCCc3ccccc3)nc21 (centres undefined) | 121 to 123 °C
CC(=O)S[C@@H](CCc1ccccc1C)C(=O)O | 47 to 48 °C
COC(=O)c1ccnc(Nc2cc(OC)cc(C(F)(F)F)c2)c1 | 178 to 179 °C
CN(CCCCCCCNC(=NCCSCc1csc(NC(=N)N)n1)NC#N)CCN(Cc1ccc(F)cc1)c1ccccn1 | 118 °C
O=[N+]([O-])c1cccc(-n2ccnc2)c1 | 101 to 102 °C
COc1ccc(C(=O)c2nnc(-c3ccccc3)o2)cc1 | 152 °C
CCOC(=O)CC1(CC)OCCc2c1[nH]c1ccccc21 (centres undefined) | < 80 °C
CC(C)(C)c1cc(C=Cc2n[nH]c(=O)o2)cc(C(C)(C)C)c1O | > 260 °C
COc1cccc2c1C1=C(CC2)NC(=O)CC1 | 190 °C

Compound | melting point
O=C1CCn2c(-c3ccccc3)nc3cc(Cl)cc1c32 | 234 to 235 °C
COc1ccc2cc(CC(=O)OCC(C)=O)ccc2c1 | 122 to 124 °C
COC1=C(OC)C(=O)c2cc(NC(C)=O)ccc2C1=O | 226 to 228 °C
CC(C)(C)c1cc(-c2n[nH]c(=S)s2)cc(C(C)(C)C)c1O | 190 to 191 °C
O=C(O)C(=O)c1ccc(OCCOc2cc3ccccc3c3ccccc23)cc1 | 179 to 180 °C
Cc1ccc(O)c2[nH]c(Cc3ccccc3)nc12 | 204 to 205 °C
COP(=O)(Nc1ccc([N+](=O)[O-])c(NCCc2ccccc2)c1)OC | 128 °C
COC(=O)n1c(=O)n(C(C)C)c2nc(=O)[nH]cc21 | 303 to 306 °C
CCCc1c(OCCCCCCCOc2ccc(C(=O)c3cccc(C(=O)O)c3)cc2CCC(=O)O)ccc2c1OCCC2=O | 152 to 153 °C
Cn1nnnc1-c1cccc(CCl)c1 | 63 to 65 °C
CC(=O)OC(=O)c1ccc(N2C(=O)NC(N(CC(C)C)C(C)=O)NC2=O)cc1 | 134 to 137 °C
CC1(C)CC(c2ccc3ccccc3c2)c2ccc(O)cc2O1 (centres undefined) | 189 to 191 °C
CN1C=CC(c2ccccc2)=C(O)C1 | 154 to 157 °C
CCN(CC)C(=O)c1c(OC)ccc2cc(-c3ccc(OC)cc3)ccc12 | 118 to 120 °C
COC(=O)CCCCC(=O)c1cccc(F)c1O | 59 to 60 °C
Cc1cc(-c2cc(F)c(F)cc2-c2ccc(S(N)(=O)=O)cc2)ccc1Cl | 142 to 143 °C
CCCN(CCC)C(=O)c1cc(C(=O)N[C@@H](Cc2cc(F)cc(F)c2)[C@H](O)CNCc2cccc(CC)c2)cc(-c2ncco2)c1 | 65 to 67 °C
CN(CCO)Cc1cc(C(=O)c2cccs2)cc(C(C)(C)C)c1O | 98 to 100 °C
Nc1ncnc2[nH]c(=O)sc12 | > 370 °C
COc1cc(C(=O)O)ccc1Cc1cn(C)c2ccc(NC(=O)NC3CCCC3)cc12 | 203 to 206 °C
CCOC(=O)c1cc2n(n1)CCOC2 | 63 °C
CC(C)(C)c1cc2c(c(C(=O)Nc3ccc(S(=O)(=O)C(F)(F)F)cc3Cl)c1O)CCO2 | 201 to 202 °C
CCCCc1nn2c(-c3ccccc3)c(C)nc2n1Cc1ccc(-c2ccccc2-c2nnn[nH]2)cc1 | > 108 °C
CC1Oc2ccc(OCCCC(C)(C)C(=O)O)cc2C=C1c1nccn1C (centres undefined) | 145 to 146 °C
O=C1c2ccccc2C(=O)N1OCCCC#Cc1ccc(F)cc1 | 85 to 88 °C

Compound | melting point
CCn1c(=O)c2[nH]c(/C=C/c3ccccc3F)nc2n(CC)c1=O | > 270 °C
CSC(=NCCSCc1ncccc1Cl)NC#N | 120 to 121 °C
O=C(O)c1ccccc1-c1ccc([N+](=O)[O-])cn1 | 262 to 264 °C
Fc1ccc(-c2ncn(C3CCNCC3)c2-c2ccnc(Oc3cccc(F)c3)n2)cc1 | 155 to 156 °C
CC(C)(C)OCCOc1cc(NC(=O)OC(C)(C)C)c(NC(=O)CC(=O)c2cccc(-n3ccnc3)c2)cc1C#Cc1ccc(F)cc1 | 62 to 65 °C
COc1cc(-c2cc(=O)c3c(OC)cc(OC)c(C4=CCN(C)CC4)c3o2)cc(OC)c1OC | 211 to 212 °C
CC(C)(C)OC(=O)NCCCCn1c(-c2ccccc2)nc2c(N)nc3ccccc3c21 | 182 to 183 °C
CCCCCCCCCCCCCCCCCCSCCCCCCCCCCC(N)=O | 108 °C
CC1(C)C(=O)Nc2cc(C(=O)Nc3ccccc3)ccc21 | 205 to 206 °C
CN(Cc1ccc(NC(=O)C2=Cc3cc(-c4ccc(N5CCOCC5)cc4)ccc3SCC2)cc1)C1CCOCC1 | 255 to 259 °C
CC(=O)Nc1ccc2c(O)c(C(=O)NCc3ccc(Cl)cc3)cnc2c1 | > 250 °C
Cn1c(OC2CCOC2)nn(C(=O)NS(=O)(=O)c2ccccc2OC(F)(F)F)c1=O (centres undefined) | 184 °C
CC(C)Cn1c(CNC(=O)OC(C)(C)C)c(-c2ccc(F)cc2)c2cc(O)ccc2c1=O | 229 to 230 °C
COc1cc(-c2cc(O)n(C)n2)cc([N+](=O)[O-])c1OC | 200 to 202 °C
CC(C)c1nc(C(C)C)c(CSc2ccc(O)cc2)c(-c2ccc(F)cc2)c1CO | 178 to 179 °C
Cc1ccc2[nH]c(C(=O)c3ccc(Cl)cc3)c(CC(=O)O)c2c1 | 194 to 197 °C
CS(=O)(=O)c1ccc2c(c1)C(=O)Cc1ccccc1O2 | 105 to 106 °C
COc1ccc(N2CCc3c(C)nc4ccccc4c32)c(C)c1 | 115 to 117 °C
CC(=O)Nc1nc2ccc(S(=O)(=O)n3c(CCC(=O)O)cc4cc(Cl)ccc43)cc2s1 | > 250 °C
COC(=O)Cc1c(C)nc(SC)nc1O | 200 °C
CC(=O)OC1C(=O)N(c2nnc(C(C)(C)C)s2)C(=O)N1C (centres undefined) | 168 °C
COC(=O)c1ccc(O)cc1NC(=O)NS(=O)(=O)c1ccc(Cl)cc1 | 244 to 248 °C
CN(C)CCOc1ccc(Nc2nccc(-c3ccncc3)n2)cc1 | 120 to 122 °C
N#CCCCN1CCN(c2nc3nccc(-c4ccncc4)n3n2)CC1 | 147 to 148 °C
